Source: US20250243188A1, “METHIONINE ADENOSYLTRANSERASE 2A INHIBITORS” (IDEAYA BIOSCIENCES, INC., priority 2022, published 2025)

Molecular target: Human MAT2A (Homo sapiens (Human), UniProt P31153)
Assay: Phosphate Sensor Fluorescence Assay (MAT2A enzyme inhibition)
Format: biochemical
Settings: MAT2A (1-395) 5.8 nM, 500 uM L-methionine, 500 uM ATP
Experimental: The ability of the compound of present disclosure to inhibit MAT2A enzyme was determined using a Phosphate Sensor Fluorescence Assay described below.
MAT2A enzyme is incubated with a test compound in DMSO or DMSO and its substrates (L-methionine and ATP) in a microtiter plate. The enzymatic reaction is stopped by the addition of Working Phosphate Sensor Mixture. The plate is analyzed for fluorescence at 450 nm. The high control (DMSO with enzyme and its substrates) gives high fluorescence which represents no inhibition of enzymatic activity while the low control (DMSO with MAT2A substrates and no enzyme) gives low fluorescence which represents full inhibition of enzymatic activity.
• Human MAT2A: Cepter, amino acids 1-395 (Clone ID 334, lot 00023-148) • Tris, pH 7.5: Invitrogen cat #15567-027 • KCl: Ambion cat #AM9640G • MgCl2: Ambion cat #AM9530G • Brij-35: Sigma cat B4184-10ML • DTT: Goldbio cat #DTT100 • BGG: Sigma cat #G5009-25G • PNP: Novus Biologicals cat #NBP1-50872 • 7-MEG: Cayman Chemical cat #15988 • L-Methionine: JTBaker P/N 2085-05 • ATP: Promega P/N V915B • Phosphate Sensor: Thermo Fisher cat #PV4407 • EDTA: Invitrogen cat #15575-038 • Assay plate: 384-well black polypropylene plate: Corning P/N 3573
• Assay Buffer: 50 mM Tris, pH 7.5/50 mM KCl/10 mM MgCl2/0.01% Brij-35/1 mM DTT/0.01% BGG/40 nM PNP/6 uM 7-MEG • MAT2A: 5.8 nM MAT2A (1-395), Cepter, clone ID 334, lot 00023-148 before the addition of Working Phosphate Sensor Mixture • L-methionine: 500 uM before the addition of Working Phosphate Sensor Mixture • ATP: 500 uM before the addition of Working Phosphate Sensor Mixture
For the assay, a mixture of 1 mM L-methionine/1 mM ATP (2× final pre-stopped concentration) in assay buffer; MAT2A (2× final pre-stopped concentration) in Assay Buffer and Working Phosphate Sensor Mixture (1.5 uM Phosphate Sensor/30 mM EDTA in Assay Buffer, which is 3× final concentrations) were prepared. Test compounds or DMSO were added to the appropriate well using a Beckman Coulter Echo 550 acoustic liquid handler. 10 μl/well of Assay Buffer was added to the wells corresponding to the negative control and 10 μl/well of MAT2A was added to all the wells except for those corresponding to the negative control. After incubating the plate at room temperature for 15 minutes, 10 μl/well of the 1 mM L-methionine/1 mM ATP mixture was added to all wells. The plate was centrifuged at 1000 rpm for 1 minute and then incubated at room temperature for 1 hour. 10 μl of the Working Phosphate Sensor Mixture was added to all wells and the plate was centrifuged at 1000 rpm for 1 minute. The plate was read for fluorescence at 450 nm after exciting at 430 nm on a Tecan Spark microplate reader.
Percent inhibition was calculated in Chemical and Biological Information System (CBIS), (ChemInnovation Software Inc.). Curves were fitted by CBIS as % inhibition vs. log [compound concentration] using a 4-parameter inhibition model.

Sequence of Human MAT2A (P31153 whole entry): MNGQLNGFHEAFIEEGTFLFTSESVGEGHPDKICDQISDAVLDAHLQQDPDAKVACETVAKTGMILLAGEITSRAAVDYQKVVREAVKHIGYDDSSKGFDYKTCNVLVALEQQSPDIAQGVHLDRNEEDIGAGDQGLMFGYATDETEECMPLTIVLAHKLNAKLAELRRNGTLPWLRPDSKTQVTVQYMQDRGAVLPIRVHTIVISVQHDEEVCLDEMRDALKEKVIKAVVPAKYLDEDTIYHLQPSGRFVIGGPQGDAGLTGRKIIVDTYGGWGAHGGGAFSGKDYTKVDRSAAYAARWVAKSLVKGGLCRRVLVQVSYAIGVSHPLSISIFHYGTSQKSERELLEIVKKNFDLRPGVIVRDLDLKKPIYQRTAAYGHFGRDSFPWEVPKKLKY

| SMILES | IC50 [nM] |
| --- | --- |
| O=C(Nc1cccc(-n2c(=O)[nH]c(=O)c3ccc(Cl)cc32)c1)c1csc(-n2c(=O)[nH]c(=O)c3ccc(Cl)cc32)c1 [Example 2, 5-(7-Chloro-2,4-dioxo-3,4-dihydroquinazolin-1(2H)-yl)-N-(3-(7-chloro-2,4-dioxo-3,4-dihydroquinazolin-1(2H)-yl)phenyl)thiophene-3-carboxamide] | < 200 |
| CN(C)c1nc(=O)n(-c2cccc(NC(=O)c3csc(-n4c(=O)nc(N(C)C)c5ccc(C(F)(F)F)cc54)c3)c2)c2cc(C(F)(F)F)ccc12 [Example 6, 5-(4-(Dimethylamino)-2-oxo-7-(trifluoromethyl)quinazolin-1(2H)-yl)-N-(3-(4-(dimethylamino)-2-oxo-7-(trifluoromethyl)quinazolin-1(2H)-yl)phenyl)thiophene-3-carboxamide] | < 200 |
| CN(C)c1nc(=O)n(-c2cccc(NCc3csc(-n4c(=O)nc(N(C)C)c5ccc(Cl)cc54)c3)c2)c2cc(Cl)ccc12 [Example 11, 7-Chloro-1-(4-(((3-(7-chloro-4-(dimethylamino)-2-oxoquinazolin-1(2H)-yl)phenyl)amino)methyl)thiophen-2-yl)-4-(dimethylamino)quinazolin-2(1H)-one] | < 200 |
| O=C(Nc1cccc(-n2c(=O)[nH]c(=O)c3ccc(Cl)cc32)c1)c1cccc(-n2c(=O)[nH]c(=O)c3ccc(Cl)cc32)c1 [Example 7, 3-(7-Chloro-2,4-dioxo-3,4-dihydroquinazolin-1(2H)-yl)-N-(3-(7-chloro-2,4-dioxo-3,4-dihydroquinazolin-1(2H)-yl)phenyl)benzamide] | < 200 |
| Cn1c(-n2c(=O)[nH]c(=O)c3ccc(Cl)cc32)cnc1C(=O)Nc1cccc(-n2c(=O)[nH]c(=O)c3ccc(Cl)cc32)c1 [Example 9, 5-(7-Chloro-2,4-dioxo-3,4-dihydroquinazolin-1(2H)-yl)-N-(3-(7-chloro-2,4-dioxo-3,4-dihydroquinazolin-1(2H)-yl)phenyl)-1-methyl-1H-imidazole-2-carboxamide] | < 200 |
| CN(C)c1nc(=O)n(-c2cccc(NC(=O)c3csc(-n4c(=O)nc(N(C)C)c5ccc(Cl)cc54)c3)c2)c2cc(Cl)ccc12 [Example 1, 5-(7-Chloro-4-(dimethylamino)-2-oxoquinazolin-1(2H)-yl)-N-(3-(7-chloro-4-(dimethylamino)-2-oxoquinazolin-1(2H)-yl)phenyl)thiophene-3-carboxamide] | < 200 |
| CN(C)c1nc(=O)n(-c2cccc(NC(=O)c3ncc(-n4c(=O)nc(N(C)C)c5ccc(Cl)cc54)n3C)c2)c2cc(Cl)ccc12 [Example 4, 5-(7-Chloro-4-(dimethylamino)-2-oxoquinazolin-1(2H)-yl)-N-(3-(7-chloro-4-(dimethylamino)-2-oxoquinazolin-1(2H)-yl)phenyl)-1-methyl-1H-imidazole-2-carboxamide] | < 200 |
| CN(C)c1nc(=O)n(-c2cccc(OCc3csc(-n4c(=O)nc(N(C)C)c5ccc(Cl)cc54)c3)c2)c2cc(Cl)ccc12 [Example 12, 7-Chloro-1-(4-((3-(7-chloro-4-(dimethylamino)-2-oxoquinazolin-1(2H)-yl)phenoxy)methyl)thiophen-2-yl)-4-(dimethylamino)quinazolin-2(1H)-one] | < 200 |
| Cc1c(C(=O)Nc2cccc(-n3c(=O)nc(N(C)C)c4ccc(Cl)cc43)c2)csc1-n1c(=O)nc(N(C)C)c2ccc(Cl)cc21 [Example 3, 5-(7-Chloro-4-(dimethylamino)-2-oxoquinazolin-1(2H)-yl)-N-(3-(7-chloro-4-(dimethylamino)-2-oxoquinazolin-1(2H)-yl)phenyl)-4-methylthiophene-3-carboxamide] | < 200 |
| CN(C)c1nc(=O)n(-c2cccc(NC(=O)c3cnc(-n4c(=O)nc(N(C)C)c5ccc(Cl)cc54)s3)c2)c2cc(Cl)ccc12 [Example 8, 2-(7-Chloro-4-(dimethylamino)-2-oxoquinazolin-1(2H)-yl)-N-(3-(7-chloro-4-(dimethylamino)-2-oxoquinazolin-1(2H)-yl)phenyl)thiazole-5-carboxamide] | < 200 |
| O=C(Nc1cccc(-n2c(=O)[nH]c(=O)c3ccc(C(F)(F)F)cc32)c1)c1csc(-n2c(=O)[nH]c(=O)c3ccc(C(F)(F)F)cc32)c1 [Example 5, 5-(2,4-Dioxo-7-(trifluoromethyl)-3,4-dihydroquinazolin-1(2H)-yl)-N-(3-(2,4-dioxo-7-(trifluoromethyl)-3,4-dihydroquinazolin-1(2H)-yl)phenyl)thiophene-3-carboxamide] | < 200 |
| CN(C)c1nc(=O)n(-c2cccc(NC(=O)c3cc(-n4c(=O)nc(N(C)C)c5ccc(Br)cc54)n(C)n3)c2F)c2cc(Cl)ccc12 [Example 10, 5-(7-Bromo-4-(dimethylamino)-2-oxoquinazolin-1(2H)-yl)-N-(3-(7-chloro-4-(dimethylamino)-2-oxoquinazolin-1(2H)-yl)-2-fluorophenyl)-1-methyl-1H-pyrazole-3-carboxamide] | < 200 |
